# Measured values taken from ChEMBL document CHEMBL4814058, “Light-inducible control of cellular proliferation and differentiation by a Hedgehog signaling inhibitor” (Bioorg Med Chem, 2021).
# Active and inactive are the calls of the source. The rule behind the calls is not given here.
# Experiments:
# NIH/3T3 [1] = test: Inhibition of hedgehog signalling in mouse NIH/3T3 cells assessed as reduction in Gli1 mRNA expression at 0.1 to 10 uM measured after 6 hrs by RT-PCR analysis; assay type: cell-based; conditions: dose 0.1-10 µM
# NIH/3T3 [2] = test: Inhibition of hedgehog signalling in mouse NIH/3T3 cells assessed as reduction in Shh mRNA expression at 0.1 to 10 uM measured after 6 hrs by RT-PCR analysis; assay type: cell-based; conditions: dose 0.1-10 µM
# NIH/3T3 [3] = test: Inhibition of SAG-induced hedgehog signalling in mouse NIH/3T3 cells assessed as reduction in Ptc mRNA expression at 0.1 to 10 uM measured after 6 hrs by RT-PCR analysis; assay type: cell-based; conditions: dose 0.1-10 µM
# NIH/3T3 [4] = test: Inhibition of SAG-induced hedgehog signalling in mouse NIH/3T3 cells assessed as reduction in Gli1 mRNA expression at 0.1 to 10 uM measured after 6 hrs by RT-PCR analysis; assay type: cell-based; conditions: dose 0.1-10 µM
# NIH/3T3 [5] = test: Inhibition of hedgehog signalling in mouse NIH/3T3 cells assessed as reduction in Ptc mRNA expression at 0.1 to 10 uM measured after 6 hrs by RT-PCR analysis; assay type: cell-based; conditions: dose 0.1-10 µM
# NIH/3T3 [6] = test: Inhibition of SAG-induced hedgehog signalling in mouse NIH/3T3 cells assessed as reduction in Shh mRNA expression at 0.1 to 10 uM measured after 6 hrs by RT-PCR analysis; assay type: cell-based; conditions: dose 0.1-10 µM
# NIH/3T3 [7] = test: Inhibition of hedgehog signalling in mouse NIH/3T3 cells assessed as reduction in Gli1 mRNA expression at 1 uM measured after 6 hrs by RT-PCR analysis; assay type: cell-based
# [8] = Effect on differentiation of ICR mouse cerebellar granule neuron assessed as effect on neurite length of Ki67-positive cells at 100 nM incubated for 48 hrs by TUBB3 staining based immunofluorescence assay; assay type: tissue-based; conditions: cerebellar granule neurone, 0.1 µM
# [9] = Effect on differentiation of ICR mouse cerebellar granule neuron assessed as effect on neurite length of Ki67-negative cells at 100 nM irradiated with 4 J/cm2 light followed by incubation with compound for 48 hrs by TUBB3 staining based immunofluorescence assay; assay type: tissue-based; conditions: cerebellar granule neurone, 0.1 µM
# NIH3T3 [10] = test: Cytotoxicity against mouse NIH/3T3 cells assessed as reduction in cell viability at 1 to 10 uM incubated for 6 hrs by MTT assay; assay type: cell-based; conditions: nih3t3, 6 h, dose 1-10 µM
# NIH3T3 [11] = test: Cytotoxicity against mouse NIH/3T3 cells assessed as reduction in cell viability at 1 to 10 uM irradiated with 4 J/cm2 light followed by compound exposure and measured after 6 hrs by MTT assay; assay type: cell-based; conditions: nih3t3, 6 h, dose 1-10 µM
# [12] = Effect on differentiation of ICR mouse cerebellar granule neuron assessed as effect on Ki67-negative cells with neurite outgrowth at 100 nM irradiated with 4 J/cm2 light followed by incubation with compound for 48 hrs by TUBB3 staining based immunofluorescence assay; assay type: tissue-based; conditions: cerebellar granule neurone, 0.1 µM
# [13] = tested on: Cerebellar granule neurone; test: Antiproliferative activity against ICR mouse cerebellar granule neurons assessed as reduction in Ki67 expression at 100 nM irradiated with 4 J/cm2 light followed by incubation with compound for 48 hrs by immunostaining analysis; assay type: functional, tissue-based
# [14] = tested on: Cerebellar granule neurone; test: Antiproliferative activity against ICR mouse cerebellar granule neurons assessed as reduction in Ki67 expression at 100 nM incubated for 48 hrs by immunostaining analysis; assay type: functional, tissue-based
# [15] = Photostability of compound assessed as drug degradation at 1 mM irradiated with 8 J/cm2 light by HPLC/MS analysis; assay type: physicochemical; conditions: read-out: Drug degradation
# NIH/3T3 [16] = test: Inhibition of SAG-induced hedgehog signalling in mouse NIH/3T3 cells assessed as reduction in Gli1 mRNA expression at 1 uM irradiated with 4 J/cm2 light followed by compound exposure and measured after 6 hrs by RT-PCR analysis; assay type: cell-based
# [17] = Effect on differentiation of ICR mouse cerebellar granule neuron assessed as effect on neurite length of Ki67-positive cells at 100 nM irradiated with 4 J/cm2 light followed by incubation with compound for 48 hrs by TUBB3 staining based immunofluorescence assay; assay type: tissue-based; conditions: cerebellar granule neurone, 0.1 µM
# [18] = Effect on differentiation of ICR mouse cerebellar granule neuron assessed as effect on Ki67-positive cells with low neurites at 100 nM incubated for 48 hrs by TUBB3 staining based immunofluorescence assay; assay type: tissue-based; conditions: cerebellar granule neurone, 0.1 µM
# [19] = Effect on differentiation of ICR mouse cerebellar granule neuron assessed as effect on Ki67-positive cells with low neurites at 100 nM irradiated with 4 J/cm2 light followed by incubation with compound for 48 hrs by TUBB3 staining based immunofluorescence assay; assay type: tissue-based; conditions: cerebellar granule neurone, 0.1 µM
# [20] = Effect on differentiation of ICR mouse cerebellar granule neuron assessed as effect on neurite length of Ki67-negative cells at 100 nM incubated for 48 hrs by TUBB3 staining based immunofluorescence assay; assay type: tissue-based; conditions: cerebellar granule neurone, 0.1 µM
# [21] = Photostability of compound assessed as drug degradation at 1 mM irradiated with 2 J/cm2 light by HPLC/MS analysis; assay type: physicochemical; conditions: read-out: Drug degradation
# [22] = Effect on differentiation of ICR mouse cerebellar granule neuron assessed as effect on Ki67-negative cells with neurite outgrowth at 100 nM incubated for 48 hrs by TUBB3 staining based immunofluorescence assay; assay type: tissue-based; conditions: cerebellar granule neurone, 0.1 µM
# NIH/3T3 [23] = test: Inhibition of SAG-induced hedgehog signalling in mouse NIH/3T3 cells assessed as reduction in Gli1 mRNA expression at > 1 uM measured after 6 hrs by RT-PCR analysis; assay type: cell-based; conditions: dose microM >1, time 6.0 hrs
Structure (SMILES),inhibition (NIH/3T3 [1]),inhibition (NIH/3T3 [2]),inhibition (NIH/3T3 [3]),inhibition (NIH/3T3 [4]),inhibition (NIH/3T3 [5]),inhibition (NIH/3T3 [6]),Activity [8],Activity (NIH3T3 [10]),Activity (NIH3T3 [11]),Activity [13],Activity [18],Activity [20],Activity [22],also measured
CC1=C2C[C@H]3[C@@H](CC=C4C[C@@H](O)CC[C@@]43C)[C@@H]2CC[C@]12O[C@@H]1C[C@H](C)CN[C@H]1[C@H]2C,inactive,inactive,Active,Active,inactive,inactive,,,,,,,,
CCCN(C(=O)OC(C)c1cc(OC)c(OCCCC(=O)O)cc1[N+](=O)[O-])[C@H]1CC[C@H](N(Cc2cccc(-c3ccncc3)c2)C(=O)c2sc3ccccc3c2Cl)CC1 (stereo partly specified),,,,,,,Non-Toxic,Non-Toxic,Non-Toxic,Active,Non-Toxic,Non-Toxic,Non-Toxic,inhibition (NIH/3T3 [7]): inactive; Activity [9]: Non-Toxic; Activity [12]: Non-Toxic; Activity [14]: inactive; degraded at 1000 µM [15]: 100%; inhibition (NIH/3T3 [16]): Active; Activity [17]: Non-Toxic; Activity [19]: Non-Toxic; degraded at 1000 µM [21]: 90%
CCCN[C@H]1CC[C@H](N(Cc2cccc(-c3ccncc3)c2)C(=O)c2sc3ccccc3c2Cl)CC1,inactive,inactive,Active,Active,inactive,inactive,Non-Toxic,Non-Toxic,Non-Toxic,Active,Non-Toxic,Non-Toxic,Non-Toxic,inhibition (NIH/3T3 [23]): Active
